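1) Cells in 96-well plates. 2) Compound, 48 h, 5 concentrations. 3) Linear interpolation between surrounding doses. 4) Unreached endpoint = highest concentration. Here, GI50 denotes the concentration required for 50% inhibition of growth.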 Activity calls are given as the source filed them. Rule as the data show it: active = GI50 up to about 1.1 µM and inactive = higher.
Tests used:
Assay in all cases: growth of human tumour cells (NCI), 48 h
HCC 2998 = test system: HCC 2998
HCT-116 = test system: HCT-116
SNB-75 = test system: SNB-75
OVCAR-5 = test system: OVCAR-5
ACHN = test system: ACHN
SW-620 = test system: SW-620
M14 = test system: M14
RPMI-8226 = test system: RPMI-8226
SF-295 = test system: SF-295
NCI/ADR-RES = test system: NCI/ADR-RES
HCT-15 = test system: HCT-15
SF-268 = test system: SF-268
SK-MEL-2 = test system: SK-MEL-2
MDA-MB-435 = test system: MDA-MB-435
IGROV-1 = test system: IGROV-1
UO-31 = test system: UO-31
K562 = test system: K562
RXF 393 = test system: RXF 393
HOP-62 = test system: HOP-62
EKVX = test system: EKVX

Row | Compound | GI50 (HCC 2998) | GI50 (HCT-116) | GI50 (SNB-75) | GI50 (OVCAR-5) | GI50 (ACHN) | GI50 (SW-620) | GI50 (M14) | GI50 (RPMI-8226) | GI50 (SF-295) | GI50 (NCI/ADR-RES) | GI50 (HCT-15) | GI50 (SF-268) | GI50 (SK-MEL-2) | GI50 (MDA-MB-435) | GI50 (IGROV-1) | GI50 (UO-31) | GI50 (K562) | GI50 (RXF 393) | GI50 (HOP-62) | GI50 (EKVX)
1 | Cc1ccc(-c2n[nH]c(=O)n2N2C(=O)c3ccccc3C2=O)cc1 | > 100 µM (inactive) | > 100 µM (inactive) | > 100 µM (inactive) | > 100 µM (inactive) | > 100 µM (inactive) | > 100 µM (inactive) | > 100 µM (inactive) | > 100 µM (inactive) | > 100 µM (inactive) | > 100 µM (inactive) | > 100 µM | > 100 µM (inactive) | > 100 µM (inactive) | > 100 µM (inactive) | > 100 µM (inactive) | > 100 µM (inactive) | > 100 µM (inactive) | > 100 µM (inactive) | > 100 µM (inactive) | –
2 | COC(=O)C1CC2CC1C1C2SC(F)(F)C1(F)F (stereo not drawn) | > 100 µM (inactive) | > 100 µM (inactive) | > 100 µM (inactive) | > 100 µM (inactive) | > 100 µM (inactive) | > 100 µM (inactive) | > 100 µM (inactive) | > 100 µM (inactive) | > 100 µM (inactive) | > 100 µM (inactive) | > 100 µM | > 100 µM (inactive) | > 100 µM (inactive) | > 100 µM (inactive) | > 100 µM (inactive) | > 100 µM (inactive) | – | > 100 µM (inactive) | > 100 µM (inactive) | > 100 µM (inactive)
3 | CCCCCCCCC/C=C1\CC(CO)(COC(=O)c2ccccc2)OC1=O (stereo not drawn) | 22.8 µM (inactive) | 22.2 µM (inactive) | 15.9 µM (inactive) | 15.9 µM (inactive) | 29.8 µM (inactive) | 19.1 µM (inactive) | 17.8 µM (inactive) | – | 21.2 µM (inactive) | 22.6 µM (inactive) | 20.7 µM | 22.7 µM (inactive) | 43.5 µM (inactive) | 16 µM (inactive) | 32.1 µM (inactive) | 16.3 µM (inactive) | 27.9 µM (inactive) | 21.1 µM (inactive) | 14.8 µM (inactive) | 15.3 µM (inactive)
4 | CCCCC1=NNC(=O)C1 | > 100 µM (inactive) | > 100 µM (inactive) | > 100 µM (inactive) | > 100 µM (inactive) | > 100 µM (inactive) | > 100 µM (inactive) | > 100 µM (inactive) | > 100 µM (inactive) | > 100 µM (inactive) | > 100 µM (inactive) | > 100 µM | – | > 100 µM (inactive) | > 100 µM (inactive) | > 100 µM (inactive) | > 100 µM (inactive) | – | > 100 µM (inactive) | > 100 µM (inactive) | > 100 µM (inactive)
5 | O=c1c2cccnc2[nH]c2ccc3cn[nH]c3c12 | > 10 µM (inactive) | 3.61 µM (inactive) | 7.89 µM (inactive) | > 10 µM (inactive) | 3.97 µM (inactive) | > 10 µM (inactive) | 7.14 µM (inactive) | > 10 µM (inactive) | > 10 µM (inactive) | > 10 µM (inactive) | 9.42 µM | > 10 µM (inactive) | > 10 µM (inactive) | > 10 µM (inactive) | 3.33 µM (inactive) | – | > 10 µM (inactive) | 2.15 µM (inactive) | > 10 µM (inactive) | 3.48 µM (inactive)
6 | CC1=C(C#N)c2nc3ccccc3n2C(=O)C1(C)CCO (stereo not drawn) | > 100 µM (inactive) | > 100 µM (inactive) | > 100 µM (inactive) | > 100 µM (inactive) | > 100 µM (inactive) | > 100 µM (inactive) | > 100 µM (inactive) | – | > 100 µM (inactive) | > 100 µM (inactive) | > 100 µM | > 100 µM (inactive) | > 100 µM (inactive) | > 100 µM (inactive) | > 100 µM (inactive) | > 100 µM (inactive) | > 100 µM (inactive) | > 100 µM (inactive) | > 100 µM (inactive) | > 100 µM (inactive)

Reference: ChEMBL document CHEMBL1201862, “PubChem BioAssay data set” (2004)
